Assay results as given in patent US9302999B2, “Substituted triazoles as herbicides” (E. I. DU PONT DE NEMOURS AND COMPANY, priority 2012, dated 2016).
Read-outs that look alike come from different tables or passages of the source.

Assays:
Type in all cases: in vivo
[1] = test system: pigweed (Amaranthus retroflexus); assay: Test A pre-/postemergence: pigweed; settings: for pest or weed control at 125 g/ha / pest or weed control at 500 g/ha: Amaranthus retroflexus, 240 h
In short: (§1)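 Seeds were sown in loam/sand blend and sprayed preemergence (directed soil spray) and, simultaneously, postemergence at 2–10 cm, one- to two-leaf stage, using compounds in non-phytotoxic solvent with surfactant. After ~10 days in greenhouse, injury was rated visually versus untreated controls, 0 (no effect) to 100 (complete control).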

[2] = test system: lambsquarters (Chenopodium album); assay: Test C pre-/postemergence: lambsquarters
In short: (§2)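 Preemergence on seeds in loam/sand, postemergence on 2–18 cm (1–4-leaf) plants in peat-based medium; compounds in non-phytotoxic solvent with surfactant. After 13–15 days in greenhouse, visual rating versus controls, 0 (no effect) to 100 (complete control).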

[3] = test system: wheat (Triticum aestivum); assay: Test A pre-/postemergence: wheat; settings: for plant injury at 125 g/ha / plant injury at 500 g/ha: Triticum aestivum, 240 h
In short: as §1

[4] = test system: pigweed (Amaranthus retroflexus); assay: Test C pre-/postemergence: pigweed
In short: as §2

[5] = test system: barnyardgrass (Echinochloa crus-galli); assay: Test A pre-/postemergence: barnyardgrass; settings: for pest or weed control at 125 g/ha / pest or weed control at 500 g/ha: Echinochloa crus-galli, 240 h
In short: as §1

rice (Oryza sativa) = assay: Test B flooded paddy: rice; settings: Flood, applied to paddy water at 2-leaf stage, visually evaluated after 13 to 15 days
In short: (§3)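 Paddy-water application: seedlings at 2-leaf stage, flood depth 3 cm maintained for the test duration. Evaluation after 13–15 days in the greenhouse by eye relative to controls; 0–100 scale.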

[6] = test system: winter wheat (Triticum aestivum); assay: Test C pre-/postemergence: winter wheat
In short: as §2

[7] = test system: barnyardgrass (Echinochloa crus-galli); assay: Test B flooded paddy: barnyardgrass; settings: Flood, applied to paddy water at 2-leaf stage, visually evaluated after 13 to 15 days
In short: as §3

[8] = test system: sedge, umbrella (small-flower umbrella sedge Cyperus difformis); assay: Test B flooded paddy: sedge, umbrella; settings: Flood, applied to paddy water at 2-leaf stage, visually evaluated after 13 to 15 days
In short: as §3

soybean (Glycine max) = assay: Test C pre-/postemergence: soybean
In short: as §2

[9] = test system: ryegrass, Italian (Italian ryegrass, Lolium multiflorum); assay: Test C pre-/postemergence: ryegrass, Italian
In short: as §2

[10] = Postemergence, 31 g ai/ha, scale 0 to 100 (0 no effect, 100 complete control)
[11] = Postemergence, 62 g ai/ha, scale 0 to 100 (0 no effect, 100 complete control)
[12] = Postemergence, 125 g ai/ha, scale 0 to 100, 0 no effect, 100 complete control
[13] = Postemergence, 250 g ai/ha, scale 0 to 100
[14] = Preemergence, 31 g ai/ha, scale 0 (no effect) to 100 (complete control)
[15] = Preemergence, 62 g ai/ha, scale of 0 to 100, 0 is no effect, 100 is complete control
[16] = Preemergence, 125 g ai/ha, scale 0 to 100, 0 no effect, 100 complete control
[17] = Preemergence, 250 g ai/ha, scale 0 to 100, 0 no effect, 100 complete control
[18] = Postemergence, 125 g ai/ha, 0 to 100 scale, 0 is no effect, 100 is complete control
[19] = Postemergence, 500 g ai/ha, visual rating on 0 to 100 scale (0 no effect, 100 complete control), approximately ten days
[20] = Preemergence, 125 g ai/ha, 0 to 100 scale where 0 is no effect and 100 is complete control
[21] = Preemergence, 500 g ai/ha, 0 to 100 scale (0 no effect, 100 complete control)
[22] = Postemergence, 16 g ai/ha, scale 0 to 100, 0 no effect, 100 complete control
[23] = Preemergence, 16 g ai/ha, scale 0 (no effect) to 100 (complete control)
[24] = Preemergence, 31 g ai/ha, scale of 0 to 100, 0 is no effect, 100 is complete control

Compound: CCOc1nn(-c2ccc(C(F)(F)F)cc2)nc1Cc1ccnc(C(F)(F)F)c1 [Compound 164, 4-[[5-ethoxy-2-[4-(trifluoromethyl)phenyl]-2H-1,2,3-triazol-4-yl]methyl]-2-(trifluoromethyl)pyridine]
- pest or weed control at 125 g/ha ([1]; post-emergence, Postemergence, 125 g ai/ha, 0 to 100 scale, 0 is no effect, 100 is complete control, read-out: Plant response rating, Pigweed): 100%
- pest or weed control at 500 g/ha ([1]; post-emergence, Postemergence, 500 g ai/ha, 0 to 100 scale, 0 is no effect, 100 is complete control, read-out: Pigweed plant response rating): 100%
- pest or weed control at 125 g/ha ([1]; pre-emergence, Preemergence, 125 g ai/ha, 0 to 100 scale where 0 is no effect and 100 is complete control, read-out: Plant response rating, Pigweed): 100%
- pest or weed control at 500 g/ha ([1]; pre-emergence, Preemergence, 500 g ai/ha, 0 to 100 scale (0 no effect, 100 complete control), read-out: Plant response rating, Pigweed): 100%
- Plant response rating, Lambsquarters [2, 10]: 50
- Plant response rating, Lambsquarters [2, 11]: 55
- Plant response rating, Lambsquarters [2, 12]: 60
- Plant response rating, Lambsquarters [2, 13]: 70
- Plant response rating, Lambsquarters [2, 14]: 85
- Plant response rating, Lambsquarters [2, 15]: 85
- Plant response rating, Lambsquarters [2, 16]: 95
- Plant response rating, Lambsquarters [2, 17]: 95
- plant injury at 125 g/ha ([3]; post-emergence, Postemergence, 125 g ai/ha, 0 to 100 scale, 0 is no effect, 100 is complete control, read-out: Plant response rating, Wheat): 50%
- plant injury at 500 g/ha ([3]; post-emergence, Postemergence, 500 g ai/ha, 0 to 100 scale, 0 is no effect, 100 is complete control, read-out: Wheat plant response rating): 60%
- plant injury at 125 g/ha ([3]; pre-emergence, Preemergence, 125 g ai/ha, 0 to 100 scale where 0 is no effect and 100 is complete control, read-out: Plant response rating, Wheat): 50%
- plant injury at 500 g/ha ([3]; pre-emergence, Preemergence, 500 g ai/ha, 0 to 100 scale (0 no effect, 100 complete control), read-out: Plant response rating, Wheat): 60%
- Plant response rating, Pigweed [4, 10]: 50
- Plant response rating, Pigweed [4, 11]: 75
- Plant response rating, Pigweed [4, 12]: 80
- Plant response rating, Pigweed [4, 13]: 80
- Plant response rating, Pigweed [4, 14]: 10
- Plant response rating, Pigweed [4, 15]: 35
- Plant response rating, Pigweed [4, 16]: 90
- Plant response rating, Pigweed [4, 17]: 100
- pest or weed control at 125 g/ha ([5]; post-emergence, Postemergence, 125 g ai/ha, 0 to 100 scale, 0 is no effect, 100 is complete control, read-out: Plant response rating, Barnyardgrass): 90%
- pest or weed control at 500 g/ha ([5]; post-emergence, Postemergence, 500 g ai/ha, 0 to 100 scale, 0 is no effect, 100 is complete control, read-out: Barnyardgrass plant response rating): 90%
- pest or weed control at 125 g/ha ([5]; pre-emergence, Preemergence, 125 g ai/ha, 0 to 100 scale where 0 is no effect and 100 is complete control, read-out: Plant response rating, Barnyardgrass): 90%
- pest or weed control at 500 g/ha ([5]; pre-emergence, Preemergence, 500 g ai/ha, 0 to 100 scale (0 no effect, 100 complete control), read-out: Plant response rating, Barnyardgrass): 100%
- Plant response rating, Rice (0 to 100 scale, 0 is no effect, 100 is complete control) (rice (Oryza sativa); 125 g ai/ha): 45
- Plant response rating, Wheat [6, 10]: 5
- Plant response rating, Wheat [6, 11]: 10
- Plant response rating, Wheat [6, 12]: 10
- Plant response rating, Wheat [6, 13]: 10
- Plant response rating, Wheat [6, 14]: 0
- Plant response rating, Wheat [6, 15]: 0
- Plant response rating, Wheat [6, 16]: 0
- Plant response rating, Wheat [6, 17]: 5
- Plant response rating, Barnyardgrass (0 to 100 scale, 0 is no effect, 100 is complete control) ([7]; 125 g ai/ha): 60
- Plant response rating, Sedge, Umbrella (0 to 100 scale, 0 is no effect, 100 is complete control) ([8]; 125 g ai/ha): 75
- Plant response rating, Soybean (soybean (Glycine max); [10]): 30
- Plant response rating, Soybean (soybean (Glycine max); [11]): 40
- Plant response rating, Soybean (soybean (Glycine max); [13]): 50
- Plant response rating, Soybean (soybean (Glycine max); [14]): 0
- Plant response rating, Soybean (soybean (Glycine max); [15]): 0
- Plant response rating, Soybean (soybean (Glycine max); [16]): 5
- Plant response rating, Soybean (soybean (Glycine max); [17]): 5
- Plant response rating, Ryegrass, Italian [9, 10]: 5
- Plant response rating, Ryegrass, Italian [9, 11]: 5
- Plant response rating, Ryegrass, Italian [9, 12]: 5
- Plant response rating, Ryegrass, Italian [9, 13]: 5
- Plant response rating, Ryegrass, Italian [9, 14]: 5
- Plant response rating, Ryegrass, Italian [9, 15]: 10
- Plant response rating, Ryegrass, Italian [9, 16]: 55
- Plant response rating, Ryegrass, Italian [9, 17]: 75

Compound: FCc1nn(-c2ccc(F)cc2)nc1Oc1ccnc(C(F)(F)F)c1 [Compound 160]
- Plant response rating, Pigweed [1, 18]: 100
- Pigweed plant response rating [1, 19]: 100
- Plant response rating, Pigweed [1, 20]: 100
- Plant response rating, Pigweed [1, 21]: 100
- Plant response rating, Lambsquarters [2, 22]: 70
- Plant response rating, Lambsquarters [2, 10]: 80
- Plant response rating, Lambsquarters [2, 11]: 95
- Plant response rating, Lambsquarters [2, 12]: 95
- Plant response rating, Lambsquarters [2, 23]: 95
- Plant response rating, Lambsquarters [2, 24]: 100
- Plant response rating, Lambsquarters [2, 15]: 100
- Plant response rating, Lambsquarters [2, 16]: 100
- Plant response rating, Wheat [3, 18]: 40
- Wheat plant response rating [3, 19]: 50
- Plant response rating, Wheat [3, 20]: 30
- Plant response rating, Wheat [3, 21]: 50
- Plant response rating, Pigweed [4, 22]: 95
- Plant response rating, Pigweed [4, 10]: 95
- Plant response rating, Pigweed [4, 11]: 98
- Plant response rating, Pigweed [4, 12]: 98
- Plant response rating, Pigweed [4, 23]: 90
- Plant response rating, Pigweed [4, 24]: 100
- Plant response rating, Pigweed [4, 15]: 100
- Plant response rating, Pigweed [4, 16]: 100
- Plant response rating, Barnyardgrass [5, 18]: 70
- Barnyardgrass plant response rating [5, 19]: 90
- Plant response rating, Barnyardgrass [5, 20]: 100
- Plant response rating, Barnyardgrass [5, 21]: 100
- Plant response rating, Rice (0 to 100 scale, 0 is no effect, 100 is complete control) (rice (Oryza sativa); 250 g ai/ha): 55
- Plant response rating, Wheat [6, 22]: 5
- Plant response rating, Wheat [6, 10]: 5
- Plant response rating, Wheat [6, 11]: 25
- Plant response rating, Wheat [6, 12]: 25
- Plant response rating, Wheat [6, 23]: 0
- Plant response rating, Wheat [6, 15]: 15
- Plant response rating, Wheat [6, 16]: 40
- Plant response rating, Barnyardgrass (0 to 100 scale, 0 is no effect, 100 is complete control) ([7]; 250 g ai/ha): 65
- Plant response rating, Sedge, Umbrella (0 to 100 scale, 0 is no effect, 100 is complete control) ([8]; 250 g ai/ha): 85
- Plant response rating, Soybean (soybean (Glycine max); [22]): 15
- Plant response rating, Soybean (soybean (Glycine max); [10]): 25
- Plant response rating, Soybean (soybean (Glycine max); [11]): 25
- Plant response rating, Soybean (soybean (Glycine max); [12]): 30
- Plant response rating, Soybean (soybean (Glycine max); [23]): 0
- Plant response rating, Soybean (soybean (Glycine max); [24]): 5
- Plant response rating, Soybean (soybean (Glycine max); [15]): 20
- Plant response rating, Soybean (soybean (Glycine max); [16]): 20
- Plant response rating, Ryegrass, Italian [9, 22]: 10
- Plant response rating, Ryegrass, Italian [9, 10]: 30
- Plant response rating, Ryegrass, Italian [9, 11]: 30
- Plant response rating, Ryegrass, Italian [9, 12]: 45
- Plant response rating, Ryegrass, Italian [9, 23]: 5
- Plant response rating, Ryegrass, Italian [9, 24]: 15
- Plant response rating, Ryegrass, Italian [9, 15]: 80
- Plant response rating, Ryegrass, Italian [9, 16]: 90
